From patent publication US7618958B2, “Stereospecific anxiolytic and anticonvulsant agents with reduced muscle-relaxant, sedative-hypnotic and ataxic effects” (WISYS Technology Foundation, Inc., priority 2004, dated 2009)

Columns and labels:
Male Sprague-Dawley rats [1] = test: Discriminative stimulus effects of chlordiazepoxide in rats (drug discrimination); conditions: for CDP-like effects (drug discrimination): compared with diazepam or triazolam; for Antianxiety/abuse liability: ratio of lowest effective anxiolytic dose (situational anxiety) and lowest effective dose producing chlordiazepoxide-like effects in drug discrimination
GABAA/α3 = GABAA/α3 (Homo sapiens, UniProt P18507+P34903); conditions: cited from earlier work
Sequence of GABAA/α3 (P34903 29-492): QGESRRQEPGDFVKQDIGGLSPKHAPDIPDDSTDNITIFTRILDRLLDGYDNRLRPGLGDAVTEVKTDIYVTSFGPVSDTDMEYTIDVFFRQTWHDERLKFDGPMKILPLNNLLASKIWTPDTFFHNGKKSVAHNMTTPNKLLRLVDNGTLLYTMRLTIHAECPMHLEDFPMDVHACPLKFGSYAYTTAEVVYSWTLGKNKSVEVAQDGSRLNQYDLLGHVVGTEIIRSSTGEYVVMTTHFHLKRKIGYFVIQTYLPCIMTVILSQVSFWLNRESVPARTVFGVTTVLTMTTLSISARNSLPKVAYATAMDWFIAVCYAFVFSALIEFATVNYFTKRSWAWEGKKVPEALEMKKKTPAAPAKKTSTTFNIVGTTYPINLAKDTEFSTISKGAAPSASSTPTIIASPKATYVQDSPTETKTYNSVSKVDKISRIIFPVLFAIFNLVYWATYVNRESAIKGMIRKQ
Sequence of GABAA/α3 (P28472 26-473 partner): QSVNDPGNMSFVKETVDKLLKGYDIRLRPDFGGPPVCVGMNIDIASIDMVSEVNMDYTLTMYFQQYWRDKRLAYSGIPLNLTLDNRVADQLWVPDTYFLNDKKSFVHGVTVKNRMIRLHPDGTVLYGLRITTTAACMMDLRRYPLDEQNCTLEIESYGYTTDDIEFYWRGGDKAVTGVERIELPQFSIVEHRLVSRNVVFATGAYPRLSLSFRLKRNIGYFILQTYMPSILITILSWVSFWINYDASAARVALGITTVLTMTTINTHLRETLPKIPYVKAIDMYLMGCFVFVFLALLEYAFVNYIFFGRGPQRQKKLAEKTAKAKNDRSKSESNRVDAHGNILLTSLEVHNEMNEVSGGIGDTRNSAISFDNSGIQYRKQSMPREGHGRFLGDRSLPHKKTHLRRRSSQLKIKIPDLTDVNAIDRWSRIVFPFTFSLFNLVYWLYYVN
Sequence of GABAA/α3 (P18507 40-475): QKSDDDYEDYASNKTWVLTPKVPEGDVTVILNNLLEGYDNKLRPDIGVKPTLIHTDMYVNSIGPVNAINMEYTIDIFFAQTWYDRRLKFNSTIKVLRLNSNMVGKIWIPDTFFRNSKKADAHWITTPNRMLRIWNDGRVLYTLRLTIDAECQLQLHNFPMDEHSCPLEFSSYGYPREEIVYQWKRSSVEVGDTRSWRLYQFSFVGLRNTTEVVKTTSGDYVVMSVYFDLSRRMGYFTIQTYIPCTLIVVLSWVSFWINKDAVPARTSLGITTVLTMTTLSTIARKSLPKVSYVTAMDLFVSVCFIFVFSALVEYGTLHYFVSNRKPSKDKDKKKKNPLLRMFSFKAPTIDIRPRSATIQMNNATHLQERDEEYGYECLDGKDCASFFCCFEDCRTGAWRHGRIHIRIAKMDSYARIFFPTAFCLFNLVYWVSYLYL

GABAA/α5 receptors = GABAA/α5 receptors (Homo sapiens, UniProt P18507+P31644); conditions: cited from earlier work
Sequence of GABAA/α5 receptors (P31644 32-462): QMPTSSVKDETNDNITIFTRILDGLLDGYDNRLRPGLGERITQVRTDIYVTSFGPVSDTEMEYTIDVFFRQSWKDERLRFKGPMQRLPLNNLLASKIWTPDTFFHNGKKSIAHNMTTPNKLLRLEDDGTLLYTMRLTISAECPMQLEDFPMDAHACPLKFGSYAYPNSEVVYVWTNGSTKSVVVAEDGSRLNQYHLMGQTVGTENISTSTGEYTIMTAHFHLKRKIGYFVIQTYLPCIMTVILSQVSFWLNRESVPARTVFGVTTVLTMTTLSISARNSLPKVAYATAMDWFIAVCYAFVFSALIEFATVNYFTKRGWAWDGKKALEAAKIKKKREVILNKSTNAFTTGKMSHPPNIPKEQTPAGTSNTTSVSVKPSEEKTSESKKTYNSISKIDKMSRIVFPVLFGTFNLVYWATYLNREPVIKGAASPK
Sequence of GABAA/α5 receptors (P28472 26-473 partner): as the sequence (P28472 26-473 partner) above
Sequence of GABAA/α5 receptors (P18507 40-475): as the sequence (P18507 40-475) above

Male CF1 mice = test: Protection from pentylenetetrazole-induced seizures; format: in vivo, mouse; conditions: for PTZ Seizures, effective dose: PO 60 min before pentylenetetrazole 125 mg/kg s.c.; for anticonvulsant effects against PTZ-induced seizures: PTZ 125 mg/kg
Procedure: Protection from Pentylenetetrazole-Induced Seizures
Male CF1 mice weighing 20-22 g at the time of the experiment were purchased from Charles River Laboratories (Wilmington, Mass.). Pentylenetetrazole (Sigma Chemical Co.) was administered at 125 mg/kg s.c. The number of animals surviving was recorded at 30 minutes and 60 minutes after administration of pentylenetetrazole.
Drug Administration: All drugs were administered PO 60 minutes before administration of pentyenetetrazole.
Data Analysis: The data are presented as the percent of animals protected from death. The data were analyzed by Chi Square statistics. The significance level was set at p<0.05.
Mice treated with certain compounds of the present invention were subjected to pentylenetetrazole (PTZ) at 125 mg/kg to induce seizures. The percent of animals protected from death within one hour of PTZ was measured.

GABAA/α2 = GABAA/α2 (Homo sapiens, UniProt P18507+P47869); conditions: cited from earlier work
Sequence of GABAA/α2 (P47869 29-451): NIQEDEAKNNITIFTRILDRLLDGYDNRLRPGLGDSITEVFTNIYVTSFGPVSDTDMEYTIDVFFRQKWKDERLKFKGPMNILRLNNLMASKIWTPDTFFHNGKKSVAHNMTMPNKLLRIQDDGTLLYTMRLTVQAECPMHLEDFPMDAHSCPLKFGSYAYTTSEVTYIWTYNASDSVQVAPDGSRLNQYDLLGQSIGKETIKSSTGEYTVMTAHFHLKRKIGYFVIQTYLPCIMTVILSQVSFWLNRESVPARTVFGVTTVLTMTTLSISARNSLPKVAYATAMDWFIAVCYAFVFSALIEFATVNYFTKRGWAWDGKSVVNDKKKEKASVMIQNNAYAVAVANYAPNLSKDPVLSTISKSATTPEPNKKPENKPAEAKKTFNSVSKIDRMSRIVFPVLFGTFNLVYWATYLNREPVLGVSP
Sequence of GABAA/α2 (P28472 26-473 partner): as the sequence (P28472 26-473 partner) above
Sequence of GABAA/α2 (P18507 40-475): as the sequence (P18507 40-475) above

Male Sprague-Dawley rats [2] = test: Rotorod performance in rats; conditions: for ataxia (rotorod): compared with diazepam or triazolam; for Antianxiety/ataxia: ratio of lowest effective anxiolytic dose (situational anxiety) and lowest effective dose producing side effects in rotorod, PO
Procedure: Rotorod Performance in Rats
Male Sprague-Dawley rats, weighing 180-200 grams at the beginning of the experiment were purchased from Charles River Laboratories (Wilmington, Mass.). The animals were housed in groups of four in a colony room maintained at constant temperature (21±2° C.) and humidity (50±10%). The room was illuminated 12 hours per day (lights on at 0600 h). The rats had ad libitum access to food and water. The degree of muscle coordination or balance (i.e., ataxia) was determined using a standard accelerating rotorod treadmill (Ugo Basile, Comerio-Varese, Italy or Columbus Instruments, Columbus, Ohio) that was 6 cm in diameter, 24 cm above the base, and run from an initial speed of 2 rpm to a maximum speed of 20 rpm. The time each animal remained on the rotating rod was automatically recorded, up to a maximum of 5 minutes.
(§1) Drug Administration: All drugs were administered PO 20-60 minutes before behavioral testing.
(§2) Data Analysis: Results were expressed as the mean±1 SEM. All data were subjected to analysis of variance (ANOVA) followed by individual mean comparisons using Fisher's Least Significant Difference Test (Kirk, 1968) where appropriate. The significance level was set at p<0.05.
The time on the rod for each rat was recorded. Compounds producing ataxia (motor incoordination) decrease the time spent on the rod compared with vehicle-treated animals.

Male Sprague-Dawley rats [3] = test: Open-field locomotor activity in rats; conditions: for sedative or hypnotic effects (locomotor activity): compared with diazepam or triazolam; for Antianxiety/sedation: ratio of lowest effective anxiolytic dose (situational anxiety) and lowest effective dose producing side effects in locomotor activity, PO
Procedure: Open-Field Locomotor Activity in Rats
Male Sprague-Dawley rats, weighing 250-290 grams at the beginning of the experiment were purchased from Charles River Laboratories (Wilmington, Mass.). The animals were housed in groups of four in a colony room maintained at constant temperature (21±2° C.) and humidity (50±10%). The room was illuminated 12 hours per day (lights on at 0600 h). The rats had ad libitum access to food and water. The testing apparatus consisted of Plexiglas chambers (42×42×30 cm) equipped with Digiscan activity monitors (Omnitech Electronics, Columbus, Ohio) that detect interruptions of 16 photobeams spaced 2.5 cm apart and 2.5 cm above the floor. Horizontal activity was monitored for 60 minutes.
as §1, §2
Rats were placed in an open field and the total distance covered by the rat was measured. The test duration was 60 minutes. Compounds producing sedative effects decrease the distance covered.

GABAA/α1 receptors = GABAA/α1 receptors (Homo sapiens, UniProt P14867+P18507); conditions: cited from earlier work
Sequence of GABAA/α1 receptors (P14867 28-456): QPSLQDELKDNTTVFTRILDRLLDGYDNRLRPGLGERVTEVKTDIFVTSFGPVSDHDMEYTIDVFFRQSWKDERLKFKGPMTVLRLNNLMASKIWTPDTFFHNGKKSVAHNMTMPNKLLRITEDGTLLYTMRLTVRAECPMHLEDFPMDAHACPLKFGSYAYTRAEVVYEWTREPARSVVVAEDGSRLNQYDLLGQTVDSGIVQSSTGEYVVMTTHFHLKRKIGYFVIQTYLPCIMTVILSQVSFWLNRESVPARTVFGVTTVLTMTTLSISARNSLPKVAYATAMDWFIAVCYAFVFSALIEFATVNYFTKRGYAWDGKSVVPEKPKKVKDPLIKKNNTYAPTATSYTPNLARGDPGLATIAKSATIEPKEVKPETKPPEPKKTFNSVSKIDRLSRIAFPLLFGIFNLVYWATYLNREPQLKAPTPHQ
Sequence of GABAA/α1 receptors (P28472 26-473 partner): as the sequence (P28472 26-473 partner) above
Sequence of GABAA/α1 receptors (P18507 40-475): as the sequence (P18507 40-475) above

SMILES: C#Cc1ccc2c(c1)C(c1ccccc1)=NCC(=O)N2C [QH-ii-066, 1-Methyl-7-acetyleno-5-phenyl-1,3-dihydro-benzo [e]-1,4-diazepin-2-one]
- CDP-like effects (drug discrimination) (Male Sprague-Dawley rats [1]): less potent in producing CDP-like effects than diazepam or triazolam
- Antianxiety/abuse liability (Male Sprague-Dawley rats [1]): 30
- Ki (GABAA/α3): < 50 nM
- Ki (GABAA/α5 receptors): < 10 nM
- PTZ Seizures, effective dose (Male CF1 mice): <30 mg/kg
- anticonvulsant effects against PTZ-induced seizures (Male CF1 mice): anticonvulsant effects against PTZ-induced seizures at doses comparable to those for diazepam and triazolam
- Ki (GABAA/α2): < 50 nM
- ataxia (rotorod) (Male Sprague-Dawley rats [2]): less potent in producing ataxia than diazepam or triazolam
- Antianxiety/ataxia (Male Sprague-Dawley rats [2]): >100
- sedative or hypnotic effects (locomotor activity) (Male Sprague-Dawley rats [3]): less effective in producing sedative or hypnotic effects than diazepam or triazolam
- Antianxiety/sedation (Male Sprague-Dawley rats [3]): 100
- Ki (GABAA/α1 receptors): > 70 nM

SMILES: C#Cc1ccc2c(c1)C(c1ccccc1)=NCc1c(C(=O)OCC)ncn1-2 [XHe-ii-053, Ethyl 8-acetylenyl-6-phenyl-4H-benzo[f]imidazo[1,5-a][1,4]diazepine-3-carboxylate]
- CDP-like effects (drug discrimination) (Male Sprague-Dawley rats [1]): less potent in producing CDP-like effects than diazepam or triazolam
- Antianxiety/abuse liability (Male Sprague-Dawley rats [1]): >300
- PTZ Seizures, effective dose (Male CF1 mice): ≦100 mg/kg
- anticonvulsant effects against PTZ-induced seizures (Male CF1 mice): effective against PTZ-induced seizures
- ataxia (rotorod) (Male Sprague-Dawley rats [2]): less potent in producing ataxia than diazepam or triazolam
- Antianxiety/ataxia (Male Sprague-Dawley rats [2]): >300
- sedative or hypnotic effects (locomotor activity) (Male Sprague-Dawley rats [3]): less effective in producing sedative or hypnotic effects than diazepam or triazolam
- Antianxiety/sedation (Male Sprague-Dawley rats [3]): >300

SMILES: C#Cc1ccc2c(c1)C(c1ccccc1Cl)=NCc1nnc(C)n1-2 [XLi-JY-DMH, 8-Acetyleno-5-(2′-chlorophenyl)-1-methyl-4H-s-triazolo-[4,3-a]-1,4-benzodiazepine]
- CDP-like effects (drug discrimination) (Male Sprague-Dawley rats [1]): less potent in producing CDP-like effects than diazepam or triazolam
- Antianxiety/abuse liability (Male Sprague-Dawley rats [1]): 1000
- PTZ Seizures, effective dose (Male CF1 mice): <1.0 mg/kg
- anticonvulsant effects against PTZ-induced seizures (Male CF1 mice): anticonvulsant effects against PTZ-induced seizures at doses comparable to those for diazepam and triazolam
- ataxia (rotorod) (Male Sprague-Dawley rats [2]): less potent in producing ataxia than diazepam or triazolam
- Antianxiety/ataxia (Male Sprague-Dawley rats [2]): 10000
- sedative or hypnotic effects (locomotor activity) (Male Sprague-Dawley rats [3]): less effective in producing sedative or hypnotic effects than diazepam or triazolam
- Antianxiety/sedation (Male Sprague-Dawley rats [3]): 10000
